Key:
Assay type in all cases: functional, cell-based
PC-3 = assay: Antiproliferative activity against human PC3 cells after 48 hrs by sulforhodamine B assay; details: PC-3, 48 h
MCF7 = assay: Antiproliferative activity against human MCF7 cells after 48 hrs by sulforhodamine B assay; details: MCF7, 48 h
A549 = assay: Antiproliferative activity against human A549 cells after 48 hrs by sulforhodamine B assay; details: A549, 48 h
HEp-2 = assay: Antiproliferative activity against human Hep2 cells after 48 hrs by sulforhodamine B assay; details: HEp-2, 48 h
THP-1 = assay: Antiproliferative activity against human THP1 cells after 48 hrs by sulforhodamine B assay; details: THP-1, 48 h
HCT-116 = assay: Antiproliferative activity against human HCT116 cells after 48 hrs by sulforhodamine B assay; details: HCT-116, 48 h

Compound	IC50 (PC-3)	IC50 (MCF7)	IC50 (A549)	IC50 (THP-1)	IC50 (HCT-116)	IC50 (HEp-2)
CC1=C2[C@H]3OC(=O)C4(C[C@@H](c5cc(Cl)ccc5Cl)N(c5ccccc5)O4)[C@@H]3CC[C@@]2(C)C=CC1=O (some centres not stated)	0.9 µM	0.5 µM	55 µM	3.9 µM	100 µM	0.6 µM
COc1ccc([C@@H]2CC3(ON2c2ccccc2)C(=O)O[C@@H]2C4=C(C)C(=O)C=C[C@]4(C)CC[C@H]23)cc1Br (some centres not stated)	0.1 µM	50 µM	2.7 µM	100 µM	45 µM	100 µM
CC1=C2[C@H]3OC(=O)C4(C[C@H](c5cc(Cl)ccc5Cl)N(c5ccccc5)O4)[C@@H]3CC[C@@]2(C)C=CC1=O (some centres not stated)	0.7 µM	0.1 µM	77 µM	0.2 µM	32 µM	100 µM
CC1=C2[C@H]3OC(=O)C4(C[C@H](c5cccc([N+](=O)[O-])c5)N(c5ccccc5)O4)[C@@H]3CC[C@@]2(C)C=CC1=O (some centres not stated)	0.3 µM	14 µM	81 µM	100 µM	100 µM	100 µM
CC1=C2[C@H]3OC(=O)C4(CC(c5ccc(Cl)cc5Cl)=NO4)[C@@H]3CC[C@@]2(C)C=CC1=O (some centres not stated)	26 µM	95 µM	13 µM	35 µM	29 µM	29 µM
COc1ccc([C@H]2CC3(ON2c2ccccc2)C(=O)O[C@@H]2C4=C(C)C(=O)C=C[C@]4(C)CC[C@H]23)cc1Br (some centres not stated)	0.1 µM	100 µM	8.5 µM	100 µM	100 µM	100 µM
CC1=C2[C@H]3OC(=O)C4(C[C@@H](c5cccc([N+](=O)[O-])c5)N(c5ccccc5)O4)[C@@H]3CC[C@@]2(C)C=CC1=O (some centres not stated)	0.9 µM	23 µM	10 µM	42 µM	48 µM	100 µM
CC1=C2[C@H]3OC(=O)C4(C[C@H](c5cccc6ccccc56)N(c5ccccc5)O4)[C@@H]3CC[C@@]2(C)C=CC1=O (some centres not stated)	0.6 µM	14 µM	1.4 µM	100 µM	100 µM	100 µM
CC1=C2[C@H]3OC(=O)C4(C[C@H](c5ccc([N+](=O)[O-])cc5)N(c5ccccc5)O4)[C@@H]3CC[C@@]2(C)C=CC1=O (some centres not stated)	0.5 µM	0.7 µM	66 µM	0.1 µM	100 µM	14 µM

Second part, led by results:

IC50 (PC-3)	IC50 (MCF7)	IC50 (A549)	IC50 (THP-1)	IC50 (HCT-116)	Compound	IC50 (HEp-2)
100 µM	0.1 µM	58 µM	100 µM	100 µM	CC1=C2[C@H]3OC(=O)C4(CC(c5ccc(Br)cc5)=NO4)[C@@H]3CC[C@@]2(C)C=CC1=O (some centres not stated)	100 µM
78 µM	100 µM	100 µM	100 µM	100 µM	CC1=C2[C@H]3OC(=O)C4(CC(c5ccccc5)=NO4)[C@@H]3CC[C@@]2(C)C=CC1=O (some centres not stated)	100 µM
0.6 µM	30 µM	2.9 µM	0.4 µM	100 µM	CC1=C2[C@H]3OC(=O)C4(CC(c5ccc6ccccc6c5)=NO4)[C@@H]3CC[C@@]2(C)C=CC1=O (some centres not stated)	100 µM
100 µM	56 µM	100 µM	100 µM	55 µM	CC1=C2[C@H]3OC(=O)C4(CC(c5ccc([N+](=O)[O-])cc5)=NO4)[C@@H]3CC[C@@]2(C)C=CC1=O (some centres not stated)	100 µM
100 µM	0.4 µM	0.7 µM	100 µM	100 µM	CC1=C2[C@H]3OC(=O)C4(CC(c5cccc(F)c5)=NO4)[C@@H]3CC[C@@]2(C)C=CC1=O (some centres not stated)	100 µM
100 µM	100 µM	100 µM	21 µM	50 µM	COc1ccc(C2=NOC3(C2)C(=O)O[C@@H]2C4=C(C)C(=O)C=C[C@]4(C)CC[C@H]23)cc1Br (some centres not stated)	100 µM
2.2 µM	0.5 µM	8.2 µM	0.4 µM	100 µM	CC1=C2[C@H]3OC(=O)C4(CC(c5cc(F)cc(F)c5)=NO4)[C@@H]3CC[C@@]2(C)C=CC1=O (some centres not stated)	100 µM
0.9 µM	0.5 µM	5.9 µM	0.2 µM	100 µM	CC1=C2[C@H]3OC(=O)C4(CC(c5ccccc5Cl)=NO4)[C@@H]3CC[C@@]2(C)C=CC1=O (some centres not stated)	7.3 µM
